Measured values from patent US20250271439A1, “PROTEOMIC SIGNATURE OF PLASMA EXTRACELLULAR VESICLES CLASSIFIES RESPONSE TO DOXORUBICIN AND CANCER” (Washington University, priority 2022, published 2025).

Experiments:
[1] = system: plasma EV proteome; assay: Label free quantitative proteomics of plasma EVs before versus after doxorubicin treatment; assay type: in vivo, human; details: SARC021 sarcoma cohort; also considering the patient's treatment sensitivity; FIG. 5A
[2] = system: sarcoma patients; assay: Tumor response to doxorubicin monotherapy assessed by RECIST version 1.1 (SARC021 trial); assay type: in vivo, human; details: two cycles of 75 mg/m^2 doxorubicin, 6 weeks
Method: Plasma was acquired from a cohort of 40 sarcoma patients on the doxorubicin monotherapy control arm of the international, open-label, prospective, randomized, phase 3, multicenter SARC021 trial (TH CR-406)^16. SARC021 was conducted at 81 academic or community investigational sites across 13 countries, and one arm of the trial treated patients with doxorubicin alone, the standard of care. Samples were obtained from 8 different sarcoma subtypes in the cohort, including angiosarcoma (AS), epitheloid sarcoma (EPI), leiomyosarcoma (LMS), liposarcoma (LS), myxofibrosarcoma (MFS), malignant peripheral nerve sheath tumor (MPNST), rhabdomyosarcoma (PMRMS), and undifferentiated pleomorphic sarcoma (UPS). The number of patients per sarcoma subtype ranged from 1 to 13 (Table 1).
Plasma for the sarcoma cohort was acquired prior to treatment with two cycles of 75 mg/m^2 doxorubicin, and just prior to cycle 3, for a total treatment time of 6 weeks (FIG. 1A). […]
Doxorubicin treatment and plasma collection: Plasma was obtained from anonymized sarcoma patients on the TH CR-406/SARC021 clinical trial, registered with ClinicalTrials.gov as NCT01440088 and entitled “A Trial of TH-302 in Combination With Doxorubicin Versus Doxorubicin Alone to Treat Patients With Locally Advanced Unresectable or Metastatic Soft Tissue Sarcoma”^84. […] Tumor response was assessed at the end of cycle 2 using RECIST version 1.1^18. […]

For COc1cccc2c1C(=O)c1c(O)c3c(c(O)c1C2=O)C[C@@](O)(C(=O)CO)C[C@@H]3O[C@H]1C[C@H](N)[C@H](O)[C@H](C)O1 [doxorubicin], the “change in EV protein abundance, plasma samples collected before and after treatment” value [1] was “no statistically significant change”, the “sarcoma patients considered treatment resistant” value ([2]; cohort of 40 sarcoma patients) was 37.5% and the “number of sarcoma patients considered treatment resistant” value ([2]; of 40 sarcoma patients) was 15.
